In general, IC50 refers to the concentration that gives 50% inhibition.

8 molecules from patent publication US11524962B2, “Substituted pyrrolo[2,3-d]pyrimidines as inhibitors of protein arginine methyl transferase 5 (PRMT5)” (PRELUDE THERAPEUTICS, INCORPORATED, priority 2017, dated 2022) can be followed below.

In assay [1] the target is T1, PRMT5/MEP50 complex (Homo sapiens (Human), UniProt O14744). The assay is described as follows: Flash plate assay. It is filed as biochemical. The conditions noted are these: read-out: Flash Plate IC50. How it is done:
Flash plate assay. Compounds were solubilized, and 3-fold diluted in 100% DMSO. […] Standard reactions were performed in a total volume of 30 μl in assay buffer, with 300 nM histone H4 based AcH4-23 (Anaspec: AS-65002) as substrate. To this was added the PRMT5/MEP50 complex diluted to provide a final assay concentration of 2.5 nM and the compounds were allowed to preincubate for 20 minutes at 37° C. The reaction was initiated by adding S-[3H-methyl]-adenosyl-L-methionine (PerkinElmer: NET155001MC) to final concentration of 1 μM. Following a 30 minutes incubation at 37° C., the reaction was stopped by adding 25 μL of 8M Guanidine HCl. Prepare streptavidin YSI SPA beads (Perkinelmer: RPNQ0012) at 0.3 mg/mL in assay buffer. To each reaction, add 150 μL of SPA beads suspension, and incubated while shaking at room temperature for 30 minutes. The plate was centrifuged at 100×g for 30 second before reading in a scintillation counter. IC50 values were determined by fitting the data to the standard 4 parameters with Hill Slope using GraphPad Prism software. This procedure produced the Flash Plate data in Table 7.

Assay [2] has as its system Symmetric Di-Methyl Arginine (sDMA) marks in Granta-519 cells. The experiment in a line: sDMA Western blot / In Cell Western in Granta-519 cells. The conditions noted are these: Homo sapiens, 72 h; Granta-519, 3 days; read-out: sDMA_Granta IC50. Type of assay: cell-based. Here is the method:
Compound titration and cell culture: Compounds were dissolved in DMSO to make 10 mM stock and 3-fold series dilutions were further conducted to make working stocks top at 1 mM. Granta-519 cells were maintained in PRMI 1640 (Corning Cellgro, Catalog #: 10-040-CV) supplemented with 10% v/v FBS (GE Healthcare, Catalog #: SH30910.03) and U-87 MG cells were maintained in DMEM (Corning Cellgro, Catalog #: 10-013-CV) with 10% FBS and 2 mM Glutamin (Corning Cellgro, Catalog #25005CV).
To determine enzyme inhibition IC50 values in Granta-519 and U-87 MG cells using Western Blot analysis. One day before experiment, Granta-519 cells were passaged to a density of 0.5×10^6 cells/ml. U-87 MG cells were trypsinized and 4×10^5 cells were seeded into 6-well plates and allow to grow overnight. The next day, Granta-519 cells were spun down at 1,500 rpm for 4 min, resuspend in fresh medium at 0.5×10^6 cells/ml and 3 mL of culture (1.5×10^6 cells) were seeded into 6 well plate. Eight-point, 3-fold serial dilutions of compound working stocks were added to cells (3 ul, 1:1,000 dilution, DMSO concentration was 0.1%; final top concentration at 1 uM) and incubated for 3 days. Cells incubated with DMSO was used as a vehicle control.
Cells were harvested 3 days later, resuspended in 15 uL PBS, lysed in 4% SDS, and homogenized by passing through homogenizer column (Omega Biotek, Catalog #: HCR003). Total protein concentrations were determined by BCA assay (ThermoFisher Scientific, Catalog #: 23225). Lysates were mixed with 5× Laemmli buffer and boiled for 5 min. Forty ug of total protein was separated on SDS-PAGE gels (Bio-Rad, catalog #: 4568083, 4568043), transferred to PVDF membrane, blocked with 5% dry milk (Bio-Rad, Catalog #: 1706404) in TBS with 0.1% v/v Tween 20 (TBST) for 1 hour at room temperature (RT), and incubated with primary antibodies (sDMA: Cell signaling, Catalog #: 13222, 1:3,000; β-Actin: sigma, Catalog #: 1:5,000) in 5% dry milk in TBST at 4° C. overnight. The next day, membranes were washed with TBST, 5×5 min, and incubated with HRP conjugated seconded antibody (GE Healthcare; Catalog #: NA934-1ML, NA931-1ML; 1:5,000) for 2 hours at RT, followed by 5×5 min washes with TBST, and incubation with ECL substrates (Bio-Rad, Catalog #: 1705061, 1705062). Chemiluminescent signal was captured with Fluochem HD2 imager (Proteinsimple). SmD3me2s bands were quantified by ImageJ. Signals were normalized to β-Actin and DMSO control. IC50 values were calculated using Graphpad Prism ([Inhibitor]vs. normalized response−Variable slope).
sDMA In Cell Western procedure (ICW): Granta-519 cells were passaged to a density of 0.5×10^6 cells/ml one day before experiments and allowed to grow overnight. The next day (day 0), cells were spun down at 1,500 rpm for 4 min, resuspended in fresh medium to 0.2×10^6 cells/ml and 100 uL of cells were added to 384-well plates using a Multidrop Combi Dispenser (ThermoFisher). A series of 9-point, 3-fold serial dilutions of compounds were prepared and dispensed into wells from a 1 mM stock solution using a TECAN digital dispenser (D300e) and the DMSO % concentration was normalized in each well to 0.1%. DMSO and 3 uM of reference compounds were used as negative (minimum inhibition) and positive (maximum inhibition) controls, respectively. After 3 days of incubation, cells were first resuspended and then 80 ul of cells were transferred to a Poly-D-lysine 384-well plate (Corning, Catalog #354663), followed by 30 minutes incubation at room temperature (RT) and 5 additional hours of incubation at 37° C. […]

The target in assay [3] is T1, PRMT5/MEP50 complex. The experiment in a line: HotSpot Assay. It is filed as biochemical. How it is done:
HotSpot Assay. Compounds were solubilized and 3-fold diluted in 100% DMSO. […] Standard reactions were performed in a total volume of 50 μl in assay buffer, with histone H2A (5 μM final) as substrate. To this was added the PRMT5/MEP50 complex diluted to provide a final assay concentration of 5 nM and the compounds were allowed to preincubate for 15 to 20 minutes at room temperature. The reaction was initiated by adding S-[3H-methyl]-adenosyl-L-methionine (PerkinElmer) to final concentration of 1 μM. Following a 60 minutes incubation at 30° C., the reaction was stopped by adding 100 μL of 20% TCA. Each reaction was spotted onto filter plate (MultiScreen FB Filter Plate, Millipore), and washed 5 times with PBS buffer, Scintillation fluid was added to the filter plate and read in a scintillation counter. IC50 values were determined by fitting the data to the standard 4 parameters with Hill Slope using GraphPad Prism software. This procedure generated the HotSpot data in Table 7.

T1 sequence (O14744 whole entry): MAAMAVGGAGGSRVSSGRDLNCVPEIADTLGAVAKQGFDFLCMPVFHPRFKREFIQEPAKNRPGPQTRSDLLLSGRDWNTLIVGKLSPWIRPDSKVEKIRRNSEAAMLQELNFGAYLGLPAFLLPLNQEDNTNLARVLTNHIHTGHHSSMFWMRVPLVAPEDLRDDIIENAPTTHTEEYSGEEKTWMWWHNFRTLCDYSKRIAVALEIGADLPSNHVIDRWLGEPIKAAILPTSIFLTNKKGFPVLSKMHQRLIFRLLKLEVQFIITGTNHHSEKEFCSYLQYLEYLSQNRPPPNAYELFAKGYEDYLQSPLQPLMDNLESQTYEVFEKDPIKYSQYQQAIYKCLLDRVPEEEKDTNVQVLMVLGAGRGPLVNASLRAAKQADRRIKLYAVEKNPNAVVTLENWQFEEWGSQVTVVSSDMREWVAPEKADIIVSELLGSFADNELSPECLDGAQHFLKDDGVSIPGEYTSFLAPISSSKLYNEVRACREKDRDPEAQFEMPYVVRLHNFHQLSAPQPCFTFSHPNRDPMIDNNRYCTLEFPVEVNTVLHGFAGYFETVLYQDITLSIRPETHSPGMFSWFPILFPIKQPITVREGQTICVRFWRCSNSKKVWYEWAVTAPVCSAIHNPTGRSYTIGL
T1 sequence (Q9BQA1 whole entry partner): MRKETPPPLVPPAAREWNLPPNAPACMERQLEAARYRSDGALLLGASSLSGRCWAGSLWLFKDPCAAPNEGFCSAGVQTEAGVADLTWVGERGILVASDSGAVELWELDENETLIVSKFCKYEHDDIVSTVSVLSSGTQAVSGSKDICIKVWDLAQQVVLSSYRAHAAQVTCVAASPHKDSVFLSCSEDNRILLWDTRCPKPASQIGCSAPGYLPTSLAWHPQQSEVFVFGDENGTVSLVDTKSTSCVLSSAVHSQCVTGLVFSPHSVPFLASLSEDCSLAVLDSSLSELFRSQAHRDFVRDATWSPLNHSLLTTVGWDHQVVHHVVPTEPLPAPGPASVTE

Turning to `Nc1ncnc2c1ccn2[C@@H]1O[C@H]([C@H](O)c2ccc3c(c2)OCC3)[C@@H](O)[C@H]1O` [Example 14, (2R,3R,4S,5R)-2-(4-amino-7H-pyrrolo[2,3-d]pyrimidin-7-yl)-5-((R)-(2,3-dihydrobenzofuran-6-yl)(hydroxy)methyl)tetrahydrofuran-3,4-diol], the values for the concentration for half-maximal inhibition (IC50) in assay [1], in assay [2] and in assay [3] were 4.4 nM, 203 nM and 6 nM, respectively.

Take `CO/N=c1\[nH]cnc2c1ccn2[C@@H]1O[C@H]([C@H](O)c2ccc3c(c2)CC3)[C@@H](O)[C@H]1O` [Example 20, 7-((2R,3R,4S,5R)-5-((R)-bicyclo[4.2.0]octa-1(6),2,4-trien-3-yl(hydroxy)methyl)-3,4-dihydroxytetrahydrofuran-2-yl)-3,7-dihydro-4H-pyrrolo[2,3-d]pyrimidin-4-one O-methyl oxime]: the half-inhibitory concentration (IC50) in assay [1] was 121 nM; in assay [3] it was 32 nM.

Turning to `CCO/N=c1\[nH]cnc2c1ccn2[C@@H]1O[C@H]([C@H](O)c2ccc3c(c2)CC3)[C@@H](O)[C@H]1O` [Example 21, 7-((2R,3R,4S,5R)-5-((R)-bicyclo[4.2.0]octa-1(6),2,4-trien-3-yl(hydroxy)methyl)-3,4-dihydroxytetrahydrofuran-2-yl)-3,7-dihydro-4H-pyrrolo[2,3-d]pyrimidin-4-one O-ethyl oxime], the IC50 stood at 148 nM in assay [1] and 153 nM in assay [3].

Consider `CCO/N=c1\[nH]cnc2c1ccn2[C@@H]1O[C@H]([C@](C)(O)c2ccc3c(c2)CC3)[C@@H](O)[C@H]1O` [Example 22, 7-((2R,3R,4S,5S)-5-((R)-1-(bicyclo[4.2.0]octa-1(6),2,4-trien-3-yl)-1-hydroxyethyl)-3,4-dihydroxytetrahydrofuran-2-yl)-3,7-dihydro-4H-pyrrolo[2,3-d]pyrimidin-4-one O-ethyl oxime], for which the IC50 was found to be 189 nM in assay [1] and 57 nM in assay [3].

Turning to `COc1ncnc2c1ccn2[C@@H]1O[C@H]([C@H](O)c2ccc3c(c2)CC3)[C@@H](O)[C@H]1O` [Example 35, (2R,3S,4R,5R)-2-[(R)-4-bicyclo[4.2.0]octa-1,3,5-trienyl(hydroxy)methyl]-5-(4-methoxypyrrolo[2,3-d]pyrimidin-7-yl)tetrahydrofuran-3,4-diol], the IC50 in assay [1] is 287 nM; in assay [3] it was 46 nM.

As to `Nc1ncnc2c1c(I)cn2[C@@H]1O[C@H]([C@H](O)c2ccc3c(c2)CC3)[C@@H](O)[C@H]1O` [Example 37, (2R,3R,4S,5R)-2-(4-amino-5-iodo-7H-pyrrolo[2,3-d]pyrimidin-7-yl)-5-((R)-bicyclo[4.2.0]octa-1(6),2,4-trien-3-yl(hydroxy)methyl)tetrahydrofuran-3,4-diol], the concentration for half-maximal inhibition (IC50) was determined as 31 nM in assay [1] and 12 nM in assay [3].

`Nc1ncnc2c1c(C(F)(F)F)cn2[C@@H]1O[C@H]([C@H](O)c2ccc3c(c2)CC3)[C@@H](O)[C@H]1O` [Example 38, (2R,3R,4S,5R)-2-(4-amino-5-(trifluoromethyl)-7H-pyrrolo[2,3-d]pyrimidin-7-yl)-5-((R)-bicyclo[4.2.0]octa-1(6),2,4-trien-3-yl(hydroxy)methyl)tetrahydrofuran-3,4-diol]: the figures for the IC50 in assay [1] and in assay [3] were 221 nM and 368 nM, respectively.

In the case of `O[C@@H]1[C@H](O)[C@@H]([C@H](O)c2ccc3c(c2)CC3)O[C@H]1n1ccc2c(CCOCc3ccccc3)ncnc21` [Example 55, (2R,3R,4S,5R)-2-(4-(2-(benzyloxy)ethyl)-7H-pyrrolo[2,3-d]pyrimidin-7-yl)-5-((R)-bicyclo[4.2.0]octa-1(6),2,4-trien-3-yl(hydroxy)methyl)tetrahydrofuran-3,4-diol], in assay [1], the IC50 came to 200 nM.
